Data: US6117890A, “Method for treating bipolar disorder” (Eli Lilly and Company, priority 1998, dated 2000)

How the values were obtained:
[1] = target: muscarinic receptors (3H-oxotremorine-M binding); assay: 3H-oxotremorine-M binding study; conditions: radioligand 3H-oxotremorine-M; read-out: inhibition constant (Ki) for binding of 3H-oxotremorine-M
[2] = test system: m4 receptors (CHO m4 cells); assay: cAMP formation in CHO m4 cells treated with pertussis toxin; type: cell-based
Source text: Muscarinic agonists stimulate the formation of CAMP up to 10 fold in CHO m4 cells treated with pertussisi toxin and the pharmacology is consistent with the mediation by m4 receptors. Eckols K. Soc. Neurosci Abstr., 21:2040 (1995).

## CCCCCCOc1nsnc1C1=CCCN(C)C1 [xanomeline, 3-(4-hexyloxy-1,2,5-thiadiazol-3-yl)-1,2,5,6-tetrahydro-1-methylpyridine]
[1]
  Ki: 2 nM
[2]
  stimulation of formation of cAMP: efficaciously and potently stimulated the formation of cAMP
